Laboratory results: patent US20250205361A1, “TREATMENT […] FOR T[…] […] ACT VIA AN INT[…] TARGET” (priority 2023, published 2025)

Tests used:
Ttr RNA = Ttr RNA quantification (qRT-PCR) in murine primary hepatocytes, depot release; assay type: cell-based, mouse; details: 0.05 nM GN3-siTTR 6 hrs loading, wash, saponin component 48 hrs
Description: Wells of a 24- or 96-well plate (Greiner BioOne) were coated overnight at 37° C. with rat collagen-I (Ibidi). Next day the coating solution was removed and the wells were washed 1× with PBS (PAN-Biotech GmbH). Hepatocyte Plating Medium (HPM, […] Cell Culture Technology GmbH) was added using 210 μl or 35 μl per well, per 24-wp or 96-wp respectively. Next, GN3-siTTR/DPBS was dissolved at 10× the final concentration (final concentration is 0.5 nM or 0.05 nM GN3-siTTR, as indicated) and 90 μl or 15 μl was added to each well, per 24-wp or 96-wp respectively. Cryopreserved primary mouse hepatocytes (Cytes Biotechnology) were thawed in Hepatocyte Thawing Medium (HTM, […] Cell Culture Technology GmbH) and collected by centrifugation at 50×g for 10 min. […]
RNA from cells was isolated using TRIzol™ Reagent (Thermo Scientific) according to the manufacturer's instruction. […] Ttr expression levels and levels of specific hepatocyte housekeeping genes were determined using quantitative real-time PCR assays (qRT-PCR) using iTaq™ Universal SYBR® Green Supermix (BioRad) and the Light Cycler 480 II (Roche Diagnostics) with specific DNA primers, listed in Table A2. […]
The timed, saponin-component-inducible release of a nucleic acid from endosomes after prior loading cells with the nucleic acid was also assessed in vitro in murine primary hepatocytes (MPH) in different dosing regimens. […]

A431 cells [1] = assay: Cell viability (MTS) of A431 cells with aCD71-SPRN and saponin components; assay type: cell-based, human; details: for potency of aCD71-SPRN versus co-administration / efficacy enhancement of aCD71-SPRN: 5 pM aCD71-SPRN 24 hr loading, wash; for efficacy enhancement of aCD71-SPRN: 24 hrs resting; for relative cell viability, efficacy of aCD71-SPRN: 5 pM aCD71-SPRN + concentration range of saponin component, 48 hr co-administration
Description: Cells were cultured in DMEM (PAN-Biotech GmbH) supplemented with 10% fetal bovine serum (FBS) (PAN-Biotech GmbH) and Pen/Strep (PAN-Biotech GmbH) at 37° C. and 5% CO2. Cells were seeded in a 96-well plate at 5.000-6.000 cells/well in 100 μL/well and incubated overnight at 37° C. […] The medium was removed from the cell culture plate and replaced by 180 μL fresh culture medium, followed by the addition of 20 μL 10× compound-mix/well. PBS treatment served as vehicle control. After 24 hrs treatment, the cells were washed and incubated with medium or medium containing PBS/saponin components for the time indicated in FIG. 6B, 6C, 6D at 37° C. At the end of the experiment at 48 hr after saponin component treatment or PBS treatment the cells were harvested for cell viability analysis. Alternatively, as a positive control, the cells were treated with a co-administration of protein toxin and saponin component (or PBS) mix for 48 hrs without medium change, FIG. 6A.
After treatment cell viability was determined by an MTS-assay, performed according to the manufacturer's instruction (CellTiter 96@AQueous One Solution Cell Proliferation Assay, Promega). Briefly, the MTS solution was diluted 20′ in DMEM without phenol red (PAN-Biotech GmbH) supplemented with 10% FBS. The cells were washed once with 200 μL/PBS well, after which 100 μL diluted MTS solution was added/well. The plate was incubated for approximately 20-30 minutes at 37° C. Subsequently, the OD at 492 nm was measured on a Spectramax iD5 plate reader (Molecular Devices). For quantification the background signal of ‘medium only’ wells was subtracted from all other wells, before the cell viability percentage of treated/untreated cells was calculated, by dividing the background corrected signal of treated wells over the background corrected signal of the untreated wells (×100).
One disadvantage of these types of immunotoxins for clinical use is their relatively narrow therapeutic window and associated potentially life-threatening toxicities at dose levels that are therapeutic. Here, the in vitro efficacy and enhancement of effect durability of an immunotoxin (anti-CD71-saporin, also referred to as aCD71-SPRN, protein toxin) by endosome escape enhancer saponin components was assessed in epidermoid carcinoma cells and metastatic melanoma cells. A concentration range of a saponin component was added either together with a fixed concentration of 5 pM aCD71-SPRN to the cancer cells, or at various time points after the loading of the cancer cells with a fixed concentration of 5 pM aCD71-SPRN (according to dosing schemes in FIG. 6A, 6B, 6C, 6D). As a negative control, cells were loaded with protein toxin according to scheme FIG. 6A-D but received medium with PBS instead of saponin component.

A431 cells [2] = assay: Imaging of Cy5 fluorescence release from Cet-Cy5 loaded A431 cells; assay type: cell-based, human; details: A431 loaded with 2 nM Cet-Cy5 48 hrs, wash, 24 hrs resting, saponin component added at 72 hrs
Description: Cells were cultured in DMEM (PAN-Biotech GmbH) supplemented with 10% fetal bovine serum (FBS) (PAN-Biotech GmbH) and Pen/Strep (PAN-Biotech GmbH) at 37° C. and 5% CO2.

[3] = 6 hrs resting, saponin component 48 hrs
[4] = saponin component added directly, 48 hrs

Structure (SMILES)	remaining Ttr levels (Ttr RNA)	potency of aCD71-SPRN versus co-administration (A431 cells [1]; [3])	efficacy enhancement of aCD71-SPRN (A431 cells [1]; saponin component 48 hrs)	potency of aCD71-SPRN versus co-administration (A431 cells [1]; [4])	relative cell viability, efficacy of aCD71-SPRN (A431 cells [1])	Cy5 fluorescence state at end of experiment at 160 hrs (A431 cells [2])
CC(=O)OC1C(C)OC(OC2C(C)OC(OC(=O)[C@]34CCC(C)(C)CC3C3=CCC5[C@@]6(C)CC[C@H](OC7OC(C(=O)O)C(O)C(OC8OCC(O)C(O)C8O)C7OC7OC(CO)C(O)C(O)C7O)[C@@](C)(/C=N/NC(=O)CCCCCN7C(=O)CC(SCCO)C7=O)C6CC[C@@]5(C)[C@]3(C)C[C@H]4O)C(OC3OC(C)C(OC4OCC(O)C(OC5OC(CO)C(O)C(O)C5O)C4O)C(O)C3O)C2O)C(O)C1OC1OCC(O)C(O)C1O (some centres unmarked) [SO1861-AH-Maleimide-Block]	3%	very comparable to the co-administration	still apparent	comparable high potency	reduces cell viability	
CC(=O)O[C@H]1[C@H](O[C@@H]2OC[C@@H](O)[C@H](O)[C@H]2O)[C@@H](O)[C@H](O[C@@H]2[C@H](O)[C@@H](O[C@@H]3O[C@@H](C)[C@H](O[C@@H]4OC[C@@H](O)[C@H](O[C@@H]5O[C@H](CO)[C@@H](O)[C@H](O)[C@H]5O)[C@H]4O)[C@@H](O)[C@H]3O)[C@H](OC(=O)[C@]34CCC(C)(C)C[C@H]3C3=CC[C@@H]5[C@@]6(C)CC[C@H](O[C@@H]7O[C@H](C(=O)O)[C@@H](O)[C@H](O[C@@H]8OC[C@@H](O)[C@H](O)[C@H]8O)[C@H]7O[C@@H]7O[C@H](CO)[C@H](O)[C@H](O)[C@H]7O)[C@@](C)(C=O)[C@@H]6CC[C@@]5(C)[C@]3(C)C[C@H]4O)O[C@@H]2C)O[C@@H]1C [SO1861]	10%	very comparable to the co-administration	still apparent	comparable high potency	reduces cell viability	zero fluorescent state
